{"source": "patent US6696276B2", "about": "“Vasopermeability-enhancing conjugates” (priority 1988, dated 2004)", "origin": "cited, not measured here", "data": [{"settings": "as little as", "units": {"amount eliciting erythema and wheal formation": "nmol"}, "values": [{"smiles": "CCCCC/C=C\\C\\C=C/C=C/C=C/[C@@H](SC[C@H](NC(=O)CC[C@H](N)C(=O)O)C(=O)NCC(=O)O)[C@@H](O)CCCC(=O)O", "note": "[leukotriene C4]", "amount eliciting erythema and wheal formation": 1}, {"smiles": "CCCCC/C=C\\C\\C=C/C=C/C=C/[C@@H](SC[C@H](N)C(=O)NCC(=O)O)[C@@H](O)CCCC(=O)O", "note": "[leukotriene D4]", "amount eliciting erythema and wheal formation": 1}, {"smiles": "CCCCC/C=C\\C\\C=C/C=C/C=C/[C@@H](SC[C@H](N)C(=O)O)[C@@H](O)CCCC(=O)O", "note": "[leukotriene E4]", "amount eliciting erythema and wheal formation": 1}]}]}
